Results taken from patent US20090036509A1, “N-(Ortho-Phenyl)-1-Methyl -3-Trifluoromethlpyrazole-4-Carboxanilides and Their Use as Fungicides” (BASF Aktiengesellschaft, priority 2004, published 2009).

Experiments:
Puccinia recondita = assay: Curative activity against brown rust of wheat caused by Puccinia recondita; assay type: in vivo; conditions: wheat seedlings sprayed 1 day after inoculation, rated after 7 days, untreated 90%; for Infection in % at 4 ppm using PUCCRT K1: Use Example 2
Procedure: The active compounds were prepared as a stock solution with 25 mg of active compound which was made up to 10 ml with a mixture of acetone and/or DMSO and the emulsifier Uniperol® EL (wetting agent having emulsifying and dispersing action based on ethoxylated alkyl phenols) in a volume ratio solvent/emulsifier of 99 to 1. The solution was then made up to 100 ml with water. This stock solution was diluted to the active compound concentrations stated below using the solvent/emulsifier/water mixture described. Curative Activity Against Brown Rust of Wheat Caused by Puccinia Recondita Leaves of potted wheat seedlings of the cultivar “Kanzler” were inoculated with a spore suspension of brown rust (Puccinia recondita). The pots were then placed in a chamber with high atmospheric humidity (90 to 95%) and at 20-22° C. for 24 hours. During this time, the spores germinated and the germ tubes penetrated into the leaf tissue. The next day, the infected plants were sprayed to runoff point with an aqueous suspension having the concentration of active compounds stated below. The suspension or emulsion was prepared as described above. After the spray coating had dried on, the test plants were cultivated in a greenhouse at temperatures between 20 and 22° C. and at 65 to 70% relative atmospheric humidity for 7 days. The extent of the rust fungus development on the leaves was then determined. Curative Activity Against Brown Rust of Wheat Caused by Puccinia Recondita Leaves of potted wheat seedlings of the cultivar “Kanzler” were inoculated with a spore suspension of brown rust (Puccinia recondita). The pots were then placed in a chamber with high atmospheric humidity (90 to 95%) and at 20-22° C. for 24 hours During this time, the spores germinated and the germ tubes penetrated into the leaf tissue. The next day, the infected plants were sprayed to runoff point with an aqueous suspension having the concentration of active compounds stated below. The suspension or emulsion was prepared as described above. After the spray coating had dried on, the test plants were cultivated in a greenhouse at temperatures between 20 and 22° C. and at 65 to 70% relative atmospheric humidity for 7 days. The extent of the rust fungus development on the leaves was then determined. Curative Activity Against Brown Rust of Wheat Caused by Puccinia Recondita Leaves of potted wheat seedlings of the cultivar “Kanzler” were inoculated with a spore suspension of brown rust (Puccinia recondita). The pots were then placed in a chamber with high atmospheric humidity (90 to 95%) and at 20-22° C. for 24 hours. During this time, the spores germinated and the germ tubes penetrated into the leaf tissue. The next day, the infected plants were sprayed to runoff point with an aqueous suspension having the concentration of active compounds stated below. The suspension or emulsion was prepared as described above. After the spray coating had dried on, the test plants were cultivated in a greenhouse at temperatures between 20 and 22° C. and at 65 to 70% relative atmospheric humidity for 7 days. The extent of the rust fungus development on the leaves was then determined.

Botrytis cinerea = assay: Activity against gray mold on bell pepper leaves caused by Botrytis cinerea, protective application; assay type: in vivo; conditions: visual rating after 5 days, untreated 90%
Procedure: The active compounds were prepared as a stock solution with 25 mg of active compound which was made up to 10 ml with a mixture of acetone and/or DMSO and the emulsifier Uniperol® EL (wetting agent having emulsifying and dispersing action based on ethoxylated alkyl phenols) in a volume ratio solvent/emulsifier of 99 to 1. The solution was then made up to 100 ml with water. This stock solution was diluted to the active compound concentrations stated below using the solvent/emulsifier/water mixture described. Activity Against Gray Mold on Bell Pepper Leaves Caused by Botrytis Cinerea Protective Application Bell pepper seedlings of the cultivar “Neusiedler Ideal Elite” were, after 2-3 leaves were well developed, sprayed to runoff point with an aqueous suspension having the concentration of active compounds stated below. The next day, the treated plants were inoculated with a spore suspension of Botrytis cinerea which contained 1.7×10^6 spores/ml in a 2% strength aqueous biomalt solution. The test plants were then placed in a dark climatized chamber at 22-24° C. and high atmospheric humidity. After 5 days, the extent of the fungal infection on the leaves could be determined visually in %. […]

[1] = Use Example 1, bell pepper seedlings sprayed 1 day before inoculation
[2] = Use Example 4, bell pepper seedlings sprayed 1 day before inoculation

Row | SMILES | Infection in % at 250 ppm using PUCCRT K1 (Puccinia recondita; Use Example 3) | Infection in % at 4 ppm using BOTRCI P1 (Botrytis cinerea; [1]) | Infection in % at 4 ppm using PUCCRT K1 (Puccinia recondita) | Infection in % at 4 ppm using BOTRCI P1 (Botrytis cinerea; [2]) | Infection in % at 250 ppm using PUCCRT K1 (Puccinia recondita; Use Example 5)
1 | COc1ccc(-c2ccccc2NC(=O)c2cn(C)nc2C(F)(F)F)c(F)c1 [Comp. 67.14] | 7% |  |  |  | 
2 | Cn1cc(C(=O)Nc2ccccc2-c2ccc(F)cc2)c(C(F)(F)F)n1 [Comp. 37of EP-A05 89 301] |  | 70% | 30% |  | 
3 | Cn1cc(C(=O)Nc2ccccc2-c2ccc(F)c(F)c2)c(C(F)(F)F)n1 [Comp. 67.4] |  | 40% | 5% |  | 
4 | Cc1cc(Cl)ccc1-c1ccccc1NC(=O)c1cn(C)nc1C(F)(F)F [67.8] |  |  |  | 0% | 0%
5 | Cc1ccccc1-c1ccccc1NC(=O)c1cn(C)nc1C(F)(F)F [Comp. 41of EP-A05 89 301] |  |  |  | 25% | 60%
6 | COc1ccc(-c2ccccc2NC(=O)c2cn(C)nc2C(F)(F)F)cc1 [Comp. 38of EP-A05 89 301] | 60% |  |  |  | 
